Source: patent US20020168327A1, “Treatment of dandruff” (Unilever Home & Personal Care USA, Division of Conopco, Inc., priority 2001, published 2002)
Several values for one entry are separate records, joined by “and”; a condition that tells them apart may be missing. Equal entries are not always repeated.

Experiments:
[1] = In vitro skin penetration study, Franz diffusion cells, radiolabelled shampoo; format: in vitro ADME, human; details: 6-fold diluted shampoo, one minute contact then washed off; 3H label; p<0.05
Method: Radiolabelled formulations were prepared using formulations spiked with either ^3H Lysine or ^3H glyceryl trioleate in sunflower seed oil. The total balance of each nutrient was brought up to 0.01% by weight using non-labelled cold material. Excised human full thickness skin was obtained and placed in between the two compartments of Franz diffusion cells. The skin is maintained by filling the receptor chamber of the cell with phosphate buffered saline with the cells placed in a water bath at 37° C. to maintain a surface skin tissue of about 32° C. […] The experimental procedure was as follows:
6-fold diluted shampoo was applied to the skin, left for one minute and washed off. The skin was then separated into 3:
remainder of the epidermis (viable) is then removed using heat separation (identified as the epidermal section)
Each of these layers was analysed for radioactivity and the amount of material penetrated calculated.
Using the in-vitro skin penetration studies, the amount of penetrated material can be quantified as a snap shot in time. From the skin sectioning process, the location of the penetrant at the particular point in time can be measured.

[2] = system: ceramide levels in stratum corneum; assay: Ceramide production in skin: test products applied to the volar forearm for four weeks, stratum corneum tape stripping; format: in vivo, human; details: responder subset of subjects; 1.0% of each active in ethanol/propylene glycol; twice daily for four weeks on volar forearm
Method: Tests on the ability of compositions to increase ceramide production in skin were carried out. The formulation pairs tested were: 1.0% tetraacetyl phytosphingosine (TAPS) vs Vehicle 1.0% TAPS+1.0% juniperic acid+1.0% linoleic acid vs Vehicle. Vehicle=ethanol/propylene glycol (1:1) plus 0.2% by weight Glydant Plus™. […] The studies were conducted as double-blind paired comparisons, with treatment assignments randomized. Subjects first completed a four-day washout phase. During the four-week application phase, test products were applied twice daily to the volar surface of the forearms, using dropper bottles to deliver 0.1 ml of test product to each site; each subject applied a test formulation to one site and the vehicle formulation to the adjacent site. After four weeks of application, samples of stratum corneum were obtained by tape stripping. A subset of subjects who responded to the treatments as expected, with a significant increase in ceramide levels, data from subjects showing increased ceramides was broken out. In each case, responder subjects represented a cross-section of the whole panel; they were not predominantly of one sex or age group. […] Increases were seen across all ceramide types. The increases for ceramides 1 and 2 were dramatically higher than for the other ceramide types.

Compound: NCCCC[C@H](N)C(=O)O [lysine]
- skin penetration (skin layers reached) [1]: penetrate not only into the stratum corneum but also deeper into the epidermis and dermis

Compound: tetraacetyl phytosphingosine [TAPS]
- mean increase in ceramide levels compared with vehicle [2]: 30% and 25%
